Experimental data from EP0979243B1, “ACTIVATION OF PEPTIDES” (Anmat Technology Limited, priority 1997, dated 2006).

Format: biochemical
Protocol: As an example of particulates for use in drug-delivery or diagnostic assay,liposomes encapsulating Calcein (Sigma) dye were prepared by the extrusion method of Biochim. Biophys. Acta (1985) 812; 55. Specifically, Phosphotidylcholine (12mg) and cholesterol (2mg) were evaporated to form a lipid film in a round bottom flask. The film was hydrated with 2ml of 120mM Calcein in 10mM sodium phosphate/120mM Sodium chloride buffer of pH 7.4. Liposomes were then prepared by ten times extrusion through a 0.2 micron polycarbonate filter using the reported method. Any non-encapsulated dye was removed by gel filtration on a PD-10 column.
In a typical assay a 2ml buffer containing a known concentration (depending on the activity) of a peptide prepared as in Example 1 is treated with 3µl liposomes prepared as in Example 2. The progress of dye leakage from the liposomes indicates release of the marker and is followed by recording an increase in fluorescence signal. The assay can be repeated in the presence of a binder. Where Calcein is used as the dye excitation and emission wavelengths of 490nm and 520nm were used. […]. The concentration of binder required to fully bind the peptide can be evaluated using series of binder concentration at fixed peptide concentrations or vice versa. […]

Structure (SMILES): CC[C@H](C)[C@H](NC(=O)CNC(C)=O)C(=O)NCC(=O)N[C@@H](C)C(=O)N[C@H](C(=O)N[C@@H](CC(C)C)C(=O)N[C@@H](CCCNC(=N)N)C(=O)N[C@H](C(=O)N[C@@H](CC(C)C)C(=O)N[C@H](C(=O)N[C@H](C(=O)NCC(=O)N[C@@H](CCCCNC(=O)CCCC[C@@H]1SC[C@@H]2NC(=O)N[C@@H]21)C(=O)N1CCC[C@H]1C(=O)N[C@@H](C)C(=O)N[C@@H](CC(C)C)C(=O)N[C@H](C(=O)N[C@@H](CO)C(=O)N[C@@H](Cc1c[nH]c2ccccc12)C(=O)N[C@H](C(=O)N[C@@H](CCCNC(=N)N)C(=O)N[C@@H](CCCNC(=N)N)C(=O)N[C@@H](CCCNC(=N)N)C(=O)N[C@@H](CCCNC(=N)N)C(=O)N[C@@H](CCC(N)=O)C(=O)N[C@@H](CCC(N)=O)C(N)=O)[C@@H](C)CC)[C@@H](C)CC)[C@@H](C)O)[C@@H](C)O)C(C)C)C(C)C [biotin modified peptide of example 1b]
- stability of integrated system (single reagent) in the inactive form (Figure 4A, under 2hrs, avidin and liposomes in 2ml buffer): very stable with little or no leakage of the contents
- stability and activation of integrated system (Figure 4B, under 17hrs, nitroavidin and liposomes in 2ml buffer, biotin added at point X): stable and activated specifically with ligand
